Results on six compounds are retold here after patent publication US20020004220A1 (priority 1999, published 2002).

The test system of one experiment is Staphylococcus aureus. Nature of the experiment: microbe, parasite or virus in culture. Format: cell-based. Conditions: read-out: MIC (MIC99).
For the next experiment, the system named is Escherichia coli. Nature of the experiment: microbe, parasite or virus in culture. Type of experiment: cell-based. The following applies: read-out: MIC (MIC99).

Structures are written as SMILES. Converted amounts (≈) assume the structure as drawn.

As for `O=C(N[C@H](CO)[C@H](O)c1ccc([N+](=O)[O-])cc1)C(Cl)Cl` [Chloramphenicol], the MIC99 in the experiment with Staphylococcus aureus and with Escherichia coli was 1.9 µg/mL (≈ 5.88 µM) throughout.
As for `CCn1cc(C(=O)O)c(=O)c2cc(F)c(N3CCNCC3)cc21` [Norfloxacin], the MIC99 turned out to be 0.85 µg/mL (≈ 2.66 µM) with Staphylococcus aureus and 0.045 µg/mL (≈ 0.141 µM) in the experiment on Escherichia coli.
For `CC1(C)S[C@@H]2[C@H](NC(=O)Cc3ccccc3)C(=O)N2[C@H]1C(=O)O` [Penicillin], in that order: 0.024 µg/mL (≈ 0.0718 µM) and 3 µg/mL (≈ 8.97 µM).
For `CO[C@H]1/C=C/O[C@@]2(C)Oc3c(C)c(O)c4c(O)c(c(/C=N/N5CCN(C)CC5)c(O)c4c3C2=O)NC(=O)/C(C)=C\C=C\[C@H](C)[C@H](O)[C@@H](C)[C@@H](O)[C@@H](C)[C@H](OC(C)=O)[C@@H]1C` [Rifampicin], in that order: 0.004 µg/mL (≈ 0.00486 µM) and 5 µg/mL (≈ 6.08 µM).
Consider `NC[C@H]1O[C@H](O[C@H]2[C@H](O)[C@@H](O[C@H]3O[C@H](CO)[C@@H](O)[C@H](N)[C@H]3O)[C@H](N)C[C@@H]2N)[C@H](N)C[C@@H]1O` [Tobramycin], for which the MIC99 in the experiment with Staphylococcus aureus was determined as 0.27 µg/mL (≈ 0.578 µM); in the experiment on Escherichia coli, 1.2 µg/mL (≈ 2.57 µM).
In the case of `CN[C@H](CC(C)C)C(=O)N[C@H]1C(=O)N[C@@H](CC(N)=O)C(=O)N[C@H]2C(=O)N[C@H]3C(=O)N[C@H](C(=O)N[C@H](C(=O)O)c4cc(O)cc(O)c4-c4cc3ccc4O)[C@H](O)c3ccc(c(Cl)c3)Oc3cc2cc(c3O[C@@H]2O[C@H](CO)[C@@H](O)[C@H](O)[C@H]2O[C@H]2C[C@](C)(N)[C@H](O)[C@H](C)O2)Oc2ccc(cc2Cl)[C@H]1O` [Vancomycin], the MIC99 in the experiment on Staphylococcus aureus turned out to be 0.65 µg/mL (≈ 0.449 µM).
